# Key:
# Format in all cases: functional, Salmonella enterica subsp. enterica serovar Typhimurium
# Salmonella typhimurium [1] = assay: Antimicrobial activity against multidrug-resistant Salmonella enterica serovar Typhimurium 902SA92 harboring GyrA S83A and D87N, GyrB S464F and ParC S80I mutant genes by agar doubling dilution method
# Salmonella typhimurium [2] = assay: Antimicrobial activity against multidrug-resistant Salmonella enterica serovar Typhimurium 902SA92 harboring plasmid encoded RamR gene, GyrA S83A and D87N, GyrB S464F and ParC S80I mutant genes by agar doubling dilution method
# Salmonella typhimurium [3] = assay: Antimicrobial activity against ramA::kan-deficient Salmonella enterica serovar Typhimurium 902SA92 harboring GyrA S83A and D87N, GyrB S464F and ParC S80I mutant genes by agar doubling dilution method
# Salmonella typhimurium [4] = assay: Antimicrobial activity against multidrug-resistant Salmonella enterica serovar Typhimurium 102SA00 harboring GyrA S83A and D87N, GyrB S464F and ParC S80I mutant genes by agar doubling dilution method
# Salmonella typhimurium [5] = assay: Antimicrobial activity against multidrug-resistant Salmonella enterica serovar Typhimurium 102SA00 harboring plasmid encoded RamR gene, GyrA S83A and D87N, GyrB S464F and ParC S80I mutant genes by agar doubling dilution method
# Salmonella typhimurium [6] = assay: Antimicrobial activity against ramA::kan-deficient Salmonella enterica serovar Typhimurium 102SA00 harboring GyrA S83A and D87N, GyrB S464F and ParC S80I mutant genes by agar doubling dilution method
# Salmonella typhimurium [7] = assay: Antimicrobial activity against multidrug-resistant Salmonella enterica serovar Typhimurium BN10055 harboring GyrA S83Y mutant gene by agar doubling dilution method
# Salmonella typhimurium [8] = assay: Antimicrobial activity against multidrug-resistant Salmonella enterica serovar Typhimurium BN10055 harboring plasmid encoded RamR gene, GyrA S83Y mutant gene by agar doubling dilution method
# Salmonella typhimurium [9] = assay: Antimicrobial activity against ramA::kan-deficient Salmonella enterica serovar Typhimurium BN10055 harboring GyrA S83Y mutant gene by agar doubling dilution method
# Salmonella typhimurium [10] = assay: Antimicrobial activity against multidrug-resistant Salmonella enterica serovar Typhimurium 543SA98 harboring GyrA […] mutant gene by agar doubling dilution method
# Salmonella typhimurium [11] = assay: Antimicrobial activity against multidrug-resistant Salmonella enterica serovar Typhimurium 543SA98 harboring plasmid encoded RamR gene, GyrA S83Y mutant gene by agar doubling dilution method
# Salmonella typhimurium [12] = assay: Antimicrobial activity against ramA::kan-deficient Salmonella enterica serovar Typhimurium 543SA98 harboring GyrA S83Y mutant gene by agar doubling dilution method
# Salmonella typhimurium [13] = assay: Antimicrobial activity against multidrug-resistant Salmonella enterica serovar Typhimurium BN9945 by agar doubling dilution method
# Salmonella typhimurium [14] = assay: Antimicrobial activity against multidrug-resistant Salmonella enterica serovar Typhimurium BN9945 harboring plasmid encoded RamR gene by agar doubling dilution method
# Salmonella typhimurium [15] = assay: Antimicrobial activity against ramA::kan-deficient Salmonella enterica serovar Typhimurium BN9945 by agar doubling dilution method
# Salmonella typhimurium [16] = assay: Antimicrobial activity against multidrug-resistant Salmonella enterica serovar Typhimurium BN9181 by agar doubling dilution method
# Salmonella typhimurium [17] = assay: Antimicrobial activity against multidrug-resistant Salmonella enterica serovar Typhimurium BN9181 harboring plasmid encoded RamR gene by agar doubling dilution method
# Salmonella typhimurium [18] = assay: Antimicrobial activity against ramA::kan-deficient Salmonella enterica serovar Typhimurium BN9181 by agar doubling dilution method
# Salmonella typhimurium [19] = assay: Antimicrobial activity against Salmonella enterica serovar Typhimurium S/921495 by agar doubling dilution method
# Salmonella typhimurium [20] = assay: Antimicrobial activity against marR::kan-deficient Salmonella enterica serovar Typhimurium S/921495 by agar doubling dilution method
# Salmonella typhimurium [21] = assay: Antimicrobial activity against marR-deficient Salmonella enterica serovar Typhimurium S/921495 by agar doubling dilution method
# Salmonella typhimurium [22] = assay: Antimicrobial activity against marA::kan-deficient Salmonella enterica serovar Typhimurium S/921495 by agar doubling dilution method
# Salmonella typhimurium [23] = assay: Antimicrobial activity against soxR::kan-deficient Salmonella enterica serovar Typhimurium S/921495 by agar doubling dilution method
# Salmonella typhimurium [24] = assay: Antimicrobial activity against soxS::kan-deficient Salmonella enterica serovar Typhimurium S/921495 by agar doubling dilution method
# Salmonella typhimurium [25] = assay: Antimicrobial activity against Salmonella enterica serovar Typhimurium S/921495 harboring plasmid encoded RamR gene by agar doubling dilution method
# Salmonella typhimurium [26] = assay: Antimicrobial activity against ramR-deficient Salmonella enterica serovar Typhimurium S/921495 harboring plasmid encoded RamR gene by agar doubling dilution method
# Salmonella typhimurium [27] = assay: Antimicrobial activity against ramA::kan-deficient Salmonella enterica serovar Typhimurium S/921495 by agar doubling dilution method
# Salmonella typhimurium [28] = assay: Antimicrobial activity against Salmonella enterica serovar Typhimurium BN18 by agar doubling dilution method
# Salmonella typhimurium [29] = assay: Antimicrobial activity against Salmonella enterica serovar Typhimurium BN18 harboring plasmid encoded RamR gene by agar doubling dilution method
# Salmonella typhimurium [30] = assay: Antimicrobial activity against ramA::kan-deficient Salmonella enterica serovar Typhimurium BN18 by agar doubling dilution method
# Salmonella typhimurium [31] = assay: Antimicrobial activity against Salmonella enterica serovar Typhimurium BN18/21 by agar doubling dilution method
# Salmonella typhimurium [32] = assay: Antimicrobial activity against Salmonella enterica serovar Typhimurium BN18/21 harboring plasmid encoded RamR gene by agar doubling dilution method
# Salmonella typhimurium [33] = assay: Antimicrobial activity against ramA::kan-deficient Salmonella enterica serovar Typhimurium BN18/21 by agar doubling dilution method
# Salmonella typhimurium [34] = assay: Antimicrobial activity against Salmonella enterica serovar Typhimurium BN18/41 harboring GyrA G81C,acrR mutant genes by agar doubling dilution method
# Salmonella typhimurium [35] = assay: Antimicrobial activity against Salmonella enterica serovar Typhimurium BN18/41 harboring plasmid encoded RamR gene, GyrA G81C,acrR mutant genes by agar doubling dilution method
# Salmonella typhimurium [36] = assay: Antimicrobial activity against ramA::kan-deficient Salmonella enterica serovar Typhimurium BN18/41 harboring plasmid encoded RamR gene, GyrA G81C,acrR mutant genes by agar doubling dilution method
# Salmonella typhimurium [37] = assay: Antimicrobial activity against Salmonella enterica serovar Typhimurium BN18/71 harboring GyrA G81C, acrR mutant genes by agar doubling dilution method
# Salmonella typhimurium [38] = assay: Antimicrobial activity against Salmonella enterica serovar Typhimurium BN18/71 harboring plasmid encoded RamR gene, GyrA G81C,acrR mutant genes by agar doubling dilution method
# Salmonella typhimurium [39] = assay: Antimicrobial activity against ramA::kan-deficient Salmonella enterica serovar Typhimurium BN18/71 harboring plasmid encoded RamR gene, GyrA G81C,acrR mutant genes by agar doubling dilution method
# Salmonella typhimurium [40] = assay: Antimicrobial activity against ramR::kan-deficient Salmonella enterica serovar Typhimurium S/921495 by agar doubling dilution method
# Salmonella typhimurium [41] = assay: Antimicrobial activity against ramR-deficient Salmonella enterica serovar Typhimurium S/921495 by agar doubling dilution method
structure (smiles),measurement,setting,value
CC1CCc2cc(F)cc3c(=O)c(C(=O)O)cn1c23 (stereo unspecified) [FLUMEQUINE],MIC,Salmonella typhimurium [1],2050 µg/mL
same,MIC,Salmonella typhimurium [2],512 µg/mL
same,MIC,Salmonella typhimurium [3],512 µg/mL
same,MIC,Salmonella typhimurium [4],2050 µg/mL
same,MIC,Salmonella typhimurium [5],512 µg/mL
same,MIC,Salmonella typhimurium [6],512 µg/mL
same,MIC,Salmonella typhimurium [7],64 µg/mL
same,MIC,Salmonella typhimurium [8],64 µg/mL
same,MIC,Salmonella typhimurium [9],16 µg/mL
same,MIC,Salmonella typhimurium [10],32 µg/mL
same,MIC,Salmonella typhimurium [11],8 µg/mL
same,MIC,Salmonella typhimurium [12],8 µg/mL
same,MIC,Salmonella typhimurium [13],32 µg/mL
same,MIC,Salmonella typhimurium [14],8 µg/mL
same,MIC,Salmonella typhimurium [15],8 µg/mL
same,MIC,Salmonella typhimurium [16],0.5 µg/mL
same,MIC,Salmonella typhimurium [17],0.5 µg/mL
same,MIC,Salmonella typhimurium [18],0.5 µg/mL
same,MIC,Salmonella typhimurium [19],0.5 µg/mL
same,MIC,Salmonella typhimurium [20],0.5 µg/mL
same,MIC,Salmonella typhimurium [21],0.5 µg/mL
same,MIC,Salmonella typhimurium [22],0.5 µg/mL
same,MIC,Salmonella typhimurium [23],0.5 µg/mL
same,MIC,Salmonella typhimurium [24],0.5 µg/mL
same,MIC,Salmonella typhimurium [25],0.5 µg/mL
same,MIC,Salmonella typhimurium [26],0.5 µg/mL
same,MIC,Salmonella typhimurium [27],0.5 µg/mL
same,MIC,Salmonella typhimurium [28],0.5 µg/mL
same,MIC,Salmonella typhimurium [29],0.5 µg/mL
same,MIC,Salmonella typhimurium [30],0.5 µg/mL
same,MIC,Salmonella typhimurium [31],8 µg/mL
same,MIC,Salmonella typhimurium [32],2 µg/mL
same,MIC,Salmonella typhimurium [33],2 µg/mL
same,MIC,Salmonella typhimurium [34],256 µg/mL
same,MIC,Salmonella typhimurium [35],64 µg/mL
same,MIC,Salmonella typhimurium [36],64 µg/mL
same,MIC,Salmonella typhimurium [37],512 µg/mL
same,MIC,Salmonella typhimurium [38],256 µg/mL
same,MIC,Salmonella typhimurium [39],256 µg/mL
same,MIC,Salmonella typhimurium [40],2 µg/mL
same,MIC,Salmonella typhimurium [41],2 µg/mL

# — ChEMBL document CHEMBL1671854, “ramR mutations involved in efflux-mediated multidrug resistance in Salmonella enterica serovar Typhimurium” (2008)
